Where a SMILES comes first, the peptide text is derived from it. The star is where a group is joined. Acetyl(1-pyrenyl) = O=C(Cc1ccc2ccc3cccc4ccc1c2c34)*; Acetyl(2-naphthyl) = O=C(Cc1ccc2ccccc2c1)*
Tests used:
[1] = tested on: MMP-9; assay: Digestion of peptides by MMP-9; type: in vitro ADME; conditions: MMP-9 (10 U) in Tris-HCl buffer, pH 7.5
[2] = tested on: MMP-9; assay: Tris-HCl buffer; conditions: 37 °C, up to 72 h

cleaved bond [2] | Compound | remaining at 72 h, 500 μM [1]
– | CC(C)C[C@H](NC(=O)CNC(=O)[C@H](CC(C)C)NC(=O)[C@@H]1CCCN1C(=O)CNC(=O)[C@H](Cc1ccccc1)NC(=O)[C@H](Cc1ccccc1)NC(=O)Cc1ccc2ccccc2c1)C(=O)N[C@@H](CCCNC(=N)N)C(=O)N[C@@H](CO)C(=O)N[C@@H](CCCCN)C(=O)O [3a] ({Acetyl(2-naphthyl)}-FFGPLGLRSK-OH; N-terminus assumed) | 41%
– | CC(C)C[C@H](NC(=O)[C@H](CO)NC(=O)[C@H](CC(C)C)NC(=O)[C@@H]1CCCN1C(=O)Cc1ccc2ccc3cccc4ccc1c2c34)C(=O)N[C@@H](CCCNC(=N)N)C(=O)N[C@@H](CO)C(=O)N[C@@H](CCCCN)C(=O)O [4c] ({Acetyl(1-pyrenyl)}-PLSLRSK-OH; N-terminus assumed) | 18%
L-R, major | PLGLRSK | –
L-R, major | PLSLRSK | –
